ChEMBL document CHEMBL6103615, “Thymidylate Kinase-Targeted Antimicrobial Peptides via Phage Display: A Novel Strategy against Gram-Negative Bacteria” (J Med Chem, 2025)
≈ marks a conversion by molar mass, not a printed value. Calls of active or inactive are those of the source. The calls are words filed in the database; no cut-off is given here.

Columns and labels:
[1] = system: Bacteria; assay: Antibacterial activity against bacterial cells at pH 12; format: functional
[2] = system: Lactococcus lactis; assay: Antibacterial activity against Lactococcus lactis NZ9000 incubated for 12 to 18 hrs by microbroth dilution method; format: functional; details: time 12-18 hrs
[3] = system: Lacticaseibacillus rhamnosus; assay: Antibacterial activity against Lactobacillus rhamnosus 7469 incubated for 12 to 18 hrs by microbroth dilution method; format: functional; details: time 12-18 hrs
[4] = system: Lactiplantibacillus plantarum; assay: Antibacterial activity against Lactobacillus plantarum 8014 incubated for 12 to 18 hrs by microbroth dilution method; format: functional; details: time 12-18 hrs
[5] = system: Bacteria; assay: Antibacterial activity against bacterial cells at pH 4 to 10; format: functional
[6] = system: Staphylococcus aureus; assay: Antibacterial activity against methicillin-resistant Staphylococcus aureus 43300 incubated for 12 to 18 hrs by microbroth dilution method; format: functional; details: time 12-18 hrs
[7] = system: Staphylococcus aureus; assay: Antibacterial activity against Staphylococcus aureus 29213 incubated for 12 to 18 hrs by microbroth dilution method; format: functional; details: time 12-18 hrs
[8] = system: Enterococcus faecalis; assay: Antibacterial activity against Enterococcus faecalis 29212 incubated for 12 to 18 hrs by microbroth dilution method; format: functional; details: time 12-18 hrs
[9] = system: Pseudomonas aeruginosa; assay: Antibacterial activity against Pseudomonas aeruginosa 27853 incubated for 12 to 18 hrs by microbroth dilution method; format: functional; details: time 12-18 hrs
[10] = system: Escherichia coli; assay: Antibacterial activity against Escherichia coli 1515 incubated for 12 to 18 hrs by microbroth dilution method; format: functional; details: time 12-18 hrs
[11] = system: Escherichia coli; assay: Antibacterial activity against Escherichia coli 078 incubated for 12 to 18 hrs by microbroth dilution method; format: functional; details: time 12-18 hrs
[12] = system: Escherichia coli; assay: Antibacterial activity against Escherichia coli K99 incubated for 12 to 18 hrs by microbroth dilution method; format: functional; details: time 12-18 hrs
[13] = Selectivity ratio of MIC for antibacterial activity against Lactobacillus rhamnosus 7469 to MIC for antibacterial activity against Escherichia coli K89; format: functional
[14] = Selectivity ratio of MIC for antibacterial activity against Staphylococcus aureus 25923 to MIC for antibacterial activity against Escherichia coli K93; format: functional
[15] = Selectivity ratio of MIC for antibacterial activity against Pseudomonas aeruginosa 27853 to MIC for antibacterial activity against Escherichia coli K96; format: functional
[16] = Selectivity ratio of MIC for antibacterial activity against Escherichia coli 078 to MIC for antibacterial activity against Escherichia coli K101; format: functional
[17] = Selectivity ratio of MIC for antibacterial activity against Escherichia coli K99 to MIC for antibacterial activity against Escherichia coli K102; format: functional
[18] = Hemolytic activity against human red blood cells at 2 to 128 uM relative to control; format: toxicity, cell-based, Erythrocyte; details: dose 2-128 µM, read-out: Activity
[19] = Cytotoxicity against porcine IPEC-J2 cells assessed as cell viability at 128 uM incubated for 4 hrs by MTT assay relative to control; format: toxicity, cell-based, Sus scrofa; details: pig, read-out: Activity
[20] = system: Bacteria; assay: Antibacterial activity against bacterial cells at 1 to 128 uM in presence of NaCl; format: functional, organism-based; details: dose 1-128 µM
[21] = system: Bacteria; assay: Antibacterial activity against bacterial cells at 1 to 64 uM incubated for 4 hrs in presence of 50 percent serum; format: functional, organism-based; details: dose 1-64 µM
[22] = system: Escherichia coli; assay: Induction of resistance development in Escherichia coli K88 at sub-MIC measured after 20 passages; format: functional, organism-based
[23] = Effect on secondary structure of compound in 50 percent TFE assessed as formation of alpha-helical conformation at 100 uM by CD analysis; format: physicochemical
[24] = system: Escherichia coli; assay: Induction of outer membrane permeability in Escherichia coli K88 assessed as NPN leakage at 2 uM relative to control; format: functional
[25] = system: Escherichia coli; assay: Induction of inner membrane permeability in Escherichia coli K88 assessed as increase in ONP level at 2 uM; format: functional, organism-based
[26] = system: Escherichia coli; assay: Induction of cytoplasmic membrane depolarization in Escherichia coli K88 at 2 uM by DiSC3-5 dye based analysis; format: functional, organism-based
[27] = system: Escherichia coli; assay: Induction of morphological changes in Escherichia coli K88 assessed as membrane folding at 2 uM incubated for 1 hr by SEM analysis; format: functional, organism-based
[28] = system: Escherichia coli; assay: Induction of morphological changes in Escherichia coli K88 assessed as membrane contraction at 2 uM incubated for 1 hr by SEM analysis; format: functional, organism-based
[29] = system: Escherichia coli; assay: Induction of morphological changes in Escherichia coli K88 assessed as membrane permeability at edges at 2 uM incubated for 1 hr by TEM analysis; format: functional, organism-based
[30] = Toxicity in ICR mouse assessed as hunchback posture at 40 mg/kg, ip measured for 30 to 4 hrs; format: organism-based; details: in vivo, time 30-4 hrs
[31] = Toxicity in ICR mouse assessed as change in serum BUN level at 10 to 40 mg/kg, ip treated for 3 days consecutively; format: organism-based; details: in vivo, 72 h, dose 10-40 mg/kg, time 3 day
[32] = Toxicity in ICR mouse assessed as change in serum ALP level at 10 to 40 mg/kg, ip treated for 3 days consecutively; format: organism-based; details: in vivo, 72 h, dose 10-40 mg/kg, time 3 day
[33] = Toxicity in ICR mouse assessed as change in liver index at 10 to 40 mg/kg, ip treated for 3 days consecutively; format: organism-based; details: in vivo, 72 h, dose 10-40 mg/kg, time 3 day
[34] = system: Escherichia coli; assay: Antibacterial activity against Escherichia coli K88 infected in ICR mouse model of peritoneal sepsis assessed as bacterial load reduction in lung at 20 mg/kg, ip measured after 10 hrs; format: functional, organism-based
[35] = system: Escherichia coli; assay: Antibacterial activity against Escherichia coli K88 infected in ICR mouse model of peritoneal sepsis assessed as reduction in vascular bruising in liver at 20 mg/kg, ip measured after 10 hrs by H and E staining based analysis; format: functional, organism-based
[36] = system: Escherichia coli; assay: Antibacterial activity against Escherichia coli K88 infected in ICR mouse model of peritoneal sepsis assessed as reduction in granulocyte infiltration in spleen at 20 mg/kg, ip measured after 10 hrs by H and E staining based analysis; format: functional, organism-based
[37] = system: Escherichia coli; assay: Antibacterial activity against Escherichia coli K88 infected in ICR mouse model of peritoneal sepsis assessed as reduction in alveolar wall thickening in lungs at 20 mg/kg, ip measured after 10 hrs by H and E staining based analysis; format: functional, organism-based
[38] = system: Escherichia coli; assay: Antibacterial activity against Escherichia coli K88 infected in ICR mouse model of peritoneal sepsis assessed as reduction in blood TNF-alpha level at 20 mg/kg, ip measured after 10 hrs; format: functional, organism-based
[39] = system: Escherichia coli; assay: Antibacterial activity against Escherichia coli K88 infected in ICR mouse model of peritoneal sepsis assessed as reduction in blood HMGB1 level at 20 mg/kg, ip measured after 10 hrs; format: functional, organism-based

Q: Which results are given for `CC[C@@H](C)[C@H](NC(=O)CNC(=O)[C@@H]1CCCN1C(=O)[C@H](CCCCN)NC(=O)[C@H](Cc1c[nH]c2ccccc12)NC(=O)[C@@H](NC(=O)[C@H](CCCCN)NC(=O)[C@H](CCCCN)NC(=O)[C@H](Cc1c[nH]c2ccccc12)NC(=O)[C@H](Cc1ccc(O)cc1)NC(=O)[C@H](CCCCN)NC(=O)[C@@H](NC(=O)[C@H](CC(C)C)NC(=O)[C@H](CC(N)=O)NC(=O)CNC(=O)[C@@H](N)CO)[C@@H](C)O)[C@@H](C)CC)C(=O)N[C@@H](CCCCN)C(=O)N[C@@H](CCCCN)C(=O)N[C@@H](Cc1c[nH]c2ccccc12)C(=O)N[C@H](C(=O)N[C@@H](CCCCN)C(=O)O)[C@H](C)CC`?
A: MIC [1]: 4 µM (≈ 10.4 µg/mL); MIC [2]: 128 µM (≈ 333 µg/mL); MIC [3]: 128 µM (≈ 333 µg/mL); MIC [4]: 128 µM (≈ 333 µg/mL); MIC [5]: 2 µM (≈ 5.21 µg/mL); MIC [6]: 128 µM (≈ 333 µg/mL); MIC [7]: 128 µM (≈ 333 µg/mL); MIC [8]: 128 µM (≈ 333 µg/mL); MIC [9]: 8 µM (≈ 20.8 µg/mL); MIC [10]: 4 µM (≈ 10.4 µg/mL); MIC [11]: 8 µM (≈ 20.8 µg/mL); MIC [12]: 4 µM (≈ 10.4 µg/mL); Ratio [13]: >2; Ratio [14]: >2; Ratio [15]: >2; Ratio [16]: >2; Ratio [17]: >2; hemolysis at up to 128 µM [18]: < 5%; viability at 4 h, 128 µM [19]: > 80%; Activity [20]: inactive; Activity [21]: Active; Activity [22]: inactive; Activity [23]: Active; Activity [24]: ~50%; Activity [25]: Active; Activity [26]: Active; Activity [27]: Active; Activity [28]: Active; Activity [29]: Active; Activity [30]: Toxic; Activity [31]: Non-toxic; Activity [32]: Non-toxic; Activity [33]: Non-toxic; Activity [34]: Active; Activity Comparable To Colistin Treatment; Activity [35]: Active; Activity [36]: Active; Activity [37]: Active; Activity [38]: Active; Activity [39]: Active
